For this assay, the system named is rat mesenteric arteries. The assay is described as follows: Vasoreactivity in rat mesenteric arteries in vitro (relaxation of U46619-contracted vessels, tension myograph). Conditions: for inhibition at 1 µM / inhibition at 3 µM / inhibition at 10 µM / inhibition at 30 µM / EC50: Rattus norvegicus; for inhibition at 1 µM / inhibition at 3 µM / inhibition at 10 µM / inhibition at 30 µM / % relaxation 1 μM / % relaxation 3 μM / % relaxation 10 μM / % relaxation 30 μM: U46619-contracted third-order arteries; for EC50: vasorelaxation, calculated from concentration-response curves. On the procedure: Male rats (Sprague-Dawley; 200-250 g) were stunned and killed by cervical dislocation. The mesentery was removed and third-order arteries mounted in an automated tension myograph (Danish Myotechnology). After an equilibration period of 45 min, vessels were normalized and diameter determined. Following normalization, each vessel was contracted repeatedly with the thromboxane A2-mimetic 9,11-dideoxy-11^α,9^α-epoxymethano-prostaglandin F2α (U46619; 1 μM) until the response was reproducible. The vessels were then washed to restore basal tone before contracting to approximately 50% of the maximum U46619-induced response. Once a stable response to U46619 was achieved, cumulative concentration-response curves were constructed with a variety of NPR-C agonists of the invention at varying concentrations (0.001-30 μM), or vehicle (DMSO). In some studies, concentration-response curves to NPR-C agonists were conducted in the presence of the NPR-C antagonist M372049 (10 μM). Only one curve to any one agonist was constructed in any single tissue.

For orientation: inhibition means the relative decrease from the control value, in per cent. Lower therefore signals little suppression. For orientation: EC50 means the concentration at which the effect is half-maximal. Turning to `Cc1cc(C)cc(Cn2cc(C(=O)NCC(=O)O)c(=O)c3ccccc32)c1` [Compound 175, 2-(1-(3.5-Dimethylbenzyl)-4-oxo-1,4-dihydroquinoline-3-carboxamido)acetic acid], the inhibition at 1 µM came out at 8%, the inhibition at 3 µM is 8%, testing at 10 µM gave an inhibition of 12% and 30 µM produced 88% inhibition. Also, the EC50 was greater than 50 µM.
In turn, `CC(C)C[C@H](NC(=O)c1cn(Cc2ccccc2)c2ccccc2c1=O)C(=O)O` [Compound 201, (S)-2-(1-benzyl-4-oxo-1,4-dihydroquinoline-3-carboxamido)-4-methylpentanoic acid] gave an inhibition at 1 µM of 0%, an inhibition at 3 µM of 0%, an inhibition at 10 µM of 0% and an inhibition at 30 µM of 82%. Also, the concentration for a half-maximal effect (EC50) was greater than 50 µM.
`CCn1cc(C(=O)O)c(=O)c2ccc(C)nc21` [Compound 137]: the “% relaxation 1 μM” value stood at 0%, the “% relaxation 3 μM” value was determined as 1%, the “% relaxation 10 μM” value was found to be 9% and the “% relaxation 30 μM” value turned out to be 69%.
In the case of `CCn1cc(C(=O)NCC(=O)O)c(=O)c2ccccc21` [Compound 171, 2-(1-Ethyl-4-oxo-1,4-dihydroquinoline-3-carboxamido)acetic acid], the inhibition at 1 µM was 2%, the inhibition at 3 µM came out at 2%, the inhibition at 10 µM amounted to 8% and testing at 30 µM gave an inhibition of 20%. Further, the EC50 was greater than 50 µM.
`CC(C)C(NC(=O)c1cnc2ccccn2c1=O)C(=O)O` (centres unmarked) [Compound 120]: the “% relaxation 1 μM” value stood at 0%, the “% relaxation 3 μM” value is reported as 3%, the “% relaxation 10 μM” value turned out to be 3% and the “% relaxation 30 μM” value came out at 20%.
Consider `O=C(O)CNC(=O)c1c[nH]c2ccccc2c1=O` [Compound 178, 2-(4-Oxo-1,4-dihydroquinoline-3-carboxamido)acetic acid], for which the inhibition at 1 µM is 5%, the inhibition at 3 µM stood at 6%, at 10 µM the inhibition was 11% and at 30 µM the inhibition was 16%. Besides, the concentration for a half-maximal effect (EC50) is 17.4 µM.
On to `C[C@H](NC(=O)c1cn(Cc2ccccc2)c2ccccc2c1=O)C(=O)O` [Compound 202, (S)-2-(1-benzyl-4-oxo-1,4-dihydroquinoline-3-carboxamido)-2-methylethanoic acid], for which the inhibition at 1 µM came to 2%, the inhibition at 3 µM was found to be 3%, testing at 10 µM gave an inhibition of 20% and at 30 µM the inhibition was 36%. Further, the EC50 was 20.3 µM.
With `O=C(O)CNC(=O)c1cn(Cc2ccc(OC(F)(F)F)cc2)c2ccccc2c1=O` [Compound 176, 2-(4-Oxo-1-(4-(trifluoromethoxy)benzyl)-1,4-dihydroquinoline-3-carboxamido)acetic acid], the inhibition at 1 µM worked out at 8%, the inhibition at 3 µM worked out at 9%, 10 µM produced 17% inhibition and 30 µM produced 91% inhibition. The concentration giving a half-maximal response (EC50) is greater than 50 µM.
As to `C[C@H](NC(=O)c1cn(Cc2ccccc2)c2ccc(Br)cc2c1=O)C(=O)O` [Compound 189, (S)-2-(1-benzyl-6-bromo-4-oxo-1,4-dihydroquinoline-3-carboxamido)propanoic acid], the inhibition at 1 µM came to 4%, at 3 µM the inhibition was 12%, the inhibition at 10 µM is 64% and the inhibition at 30 µM came out at 84%.
In the case of `CC(NC(=O)c1cnc2ccccn2c1=O)C(=O)O` (centres unmarked) [Compound 203], the “% relaxation 1 μM” value is reported as 7%, the “% relaxation 3 μM” value was 6%, the “% relaxation 10 μM” value is 28% and the “% relaxation 30 μM” value was 50%.
The corresponding values for `CC(C)CC(NC(=O)c1cnc2ccccn2c1=O)C(=O)O` (centres unmarked) [Compound 204] are 9%, 18%, 30% and 92%.
The compound `O=C(O)CNC(=O)c1cn(Cc2ccccc2Cl)c2ccccc2c1=O` [Compound 177, 2-(1-(2-Chlorobenzyl)-4-oxo-1,4-dihydroquinoline-3-carboxyamido)acetic acid] gave an inhibition at 1 µM of 1%, an inhibition at 3 µM of 3%, an inhibition at 10 µM of 6% and an inhibition at 30 µM of 52%. Moreover, the EC50 is greater than 50 µM.
For the compound `O=C(O)CNC(=O)c1cn(Cc2cccc(Cl)c2)c2ccccc2c1=O` [Compound 172, 2-(1-(3-Chlorobenzyl)-4-oxo-1,4-dihydroquinoline-3-carboxamido)acetic acid], testing at 1 µM gave an inhibition of 5%, 3 µM produced 20% inhibition, at 10 µM the inhibition was 43% and 30 µM produced 91% inhibition. Further, the EC50 is greater than 50 µM.
The compound `O=C(O)CNC(=O)c1cn(Cc2ccccc2F)c2ccccc2c1=O` [Compound 173, 2-(1-(2-Fluorobenzyl)-4-oxo-1,4-dihydroquinoline-3-carboxamido)acetic acid] came in with an inhibition at 1 µM of 4%, an inhibition at 3 µM of 13%, an inhibition at 10 µM of 15% and an inhibition at 30 µM of 79%. For the same compound, the 50% effective concentration (EC50) was greater than 50 µM.
The corresponding values for `CC(C)C[C@H](NC(=O)c1cn(Cc2ccccc2)c2ccc(Br)cc2c1=O)C(=O)O` [Compound 188, (S)-2-(1-benzyl-6-bromo-4-oxo-1,4-dihydroquinoline-3-carboxamido)-4-methylpentanoic acid] are 4%, 3%, 2%, 87% and greater than 50 µM.
Consider `O=C(O)CNC(=O)c1cnc2ccccn2c1=O` [Compound 121], for which the “% relaxation 1 μM” value was found to be 5%, the “% relaxation 3 μM” value is given as 2%, the “% relaxation 10 μM” value is reported as 3% and the “% relaxation 30 μM” value is 17%.
Regarding `COc1ccc(Cn2cc(C(=O)NCC(=O)O)c(=O)c3ccccc32)cc1` [Compound 174, 2-(1-(4-Methoxybenzyl)-4-oxo-1,4-dihydroquinoline-3-carboxamido)acetic acid], at 1 µM the inhibition was 4%, the inhibition at 3 µM came out at 4%, the inhibition at 10 µM is 8% and at 30 µM the inhibition was 20%. Further, the 50% effective concentration (EC50) is greater than 50 µM.
On to `O=C(O)c1cn(Cc2cccc(Cl)c2)c2ccccc2c1=O` [Compound 155, 1-(3-Chlorobenzyl)-4-oxo-1,4-dihydroquinoline-3-carboxylic acid], for which the inhibition at 1 µM turned out to be 4%, the inhibition at 3 µM is 6%, the inhibition at 10 µM was determined as 10% and the inhibition at 30 µM came to 25%.
On to `O=C(NC(Cc1ccccc1)C(=O)O)c1cnc2ccccn2c1=O` (centres unmarked) [Compound 205], for which the “% relaxation 1 μM” value is on record as −9%, the “% relaxation 3 μM” value is on record as 13%, the “% relaxation 10 μM” value worked out at 13% and the “% relaxation 30 μM” value was 14%.
Compound `O=C(N[C@@H](Cc1ccccc1)C(=O)O)c1cn(Cc2ccccc2)c2ccccc2c1=O` [Compound 200, (S)-2-(1-benzyl-4-oxo-1,4-dihydroquinoline-3-carboxamido)-3-phenylpropanoic acid] registered an inhibition at 1 µM of 4%, an inhibition at 3 µM of 10%, an inhibition at 10 µM of 67% and an inhibition at 30 µM of 89%. For the same compound, the EC50 was greater than 50 µM.
`CC(C)(C)OC(=O)n1cc(C(=O)O)c(=O)c2ccccc21` [Compound 81] registered an inhibition at 1 µM of 1%, an inhibition at 3 µM of 1%, an inhibition at 10 µM of 7% and an inhibition at 30 µM of 25%.
On to `O=C(N[C@@H](Cc1ccccc1)C(=O)O)c1cn(Cc2ccccc2)c2ccc(Br)cc2c1=O` [Compound 187, (S)-2-(1-benzyl-6-bromo-4-oxo-1,4-dihydroquinoline-3-carboxamido)-3-phenylpropanoic acid], for which 1 µM produced 31% inhibition, the inhibition at 3 µM was determined as 57%, testing at 10 µM gave an inhibition of 93% and at 30 µM the inhibition was 100%. The EC50 was 1.6 µM.

The record behind these values is US10087144B2, “Agents for use in the treatment of cardiovascular and inflammatory diseases structurally based on 4(1 H)-quinolone” (UCL Business PLC, priority 2015, dated 2018).
